Experimental data from the OPERA property sets (Mansouri et al. 2018).

Conditions: not given

SMILES	melting point [°C]	boiling point [°C]	log10 vapour pressure (mmHg)	ready biodegradability	log10 Henry constant (atm·m³/mol)	log10 Koc (L/kg)	log10 Koa
N#Cc1cccc(O)c1	80						
CC(C)c1cccc2ccccc12	-16	268	-2.22				
CC(=O)NCc1ccccc1	61			readily biodegradable			
CC(C)CO[N+](=O)[O-]		123	0.919		-2.65		
Clc1ccc(-c2cccc(Cl)c2Cl)c(Cl)c1					-3.85		
CCCCCCCCCCCCCC(O)CC (stereo not drawn)	50						
CC(=O)NC(=O)COC(=O)c1ccccc1	104						
Nc1ccccc1S(=O)(=O)O				not readily biodegradable			
Fc1cc(F)c(F)nc1F		102					
COc1ccc2c(c1)c(CC(=O)OCC(=O)O)c(C)n2C(=O)c1ccc(Cl)cc1	152						
CCOC(=O)c1ccccc1S(=O)(=O)NC(=O)Nc1nc(Cl)cc(OC)n1						2.04	
C1=CCCCC=C1	-110	120					
CN(CCCN)CCCN		232					
CC#CC#CC	67.8	130					
Oc1ccccc1C=NCCN=Cc1ccccc1O	128						
Cc1ccc(NO)cc1	96						
Cc1c(C(C)C)c(=O)n(-c2ccccc2)n1C	103						
Nc1c(Oc2ccc(Br)cc2)cc(O)c2c1C(=O)c1ccccc1C2=O				not readily biodegradable			
CCCCNC	-75	91					
N#Cc1ccccc1OCC(O)CNCCNC(=O)Cc1ccc(O)cc1 (stereo not drawn)	119						
Cn1c(=O)n(C)c(=O)n(C)c1=O	176	274					
O=C(O)CBr	50	208	-0.926		-8.19		
CC1=CCOCC1		118					
Cc1n[nH]c(=O)[nH]c1=O	211						

SMILES	melting point [°C]	boiling point [°C]	log10 vapour pressure (mmHg)	ready biodegradability	log10 Henry constant (atm·m³/mol)	log10 Koc (L/kg)	log10 Koa
CC(C)CC=NO	48.5	161					
CC(C)C(C)(C)C(C)C	-102	142	0.946				
O=[N+]([O-])c1ccc(O)cc1C(F)(F)F	76					2.11	
Oc1c(I)cc(Cl)c2cccnc12	178						
O=[N+]([O-])c1ccc(Nc2ccccc2)c([N+](=O)[O-])c1	159		-8.52				
CCCCCCCO	-34	176	-0.665	readily biodegradable	-4.73	1.14	
C=COCC(F)(F)F		42.5					
CCOC(=O)CCCCCC(=O)O	10						
CCn1cc(C(=O)O)c(=O)c2cc(F)c(N3CCNCC3)cc21	228						
FC(F)(F)SSC(F)(F)F		34.6					
CCCCCCCS	-43	177	0.116				
C[N+](C)(C)CCOC(=O)CCC(=O)OCC[N+](C)(C)C.[Br-].[Br-]	225						
CCCC=CC(=O)O	36.5	216					
Cc1ccc(CBr)cc1	35	220					
CCCOC(=O)NCCCN(C)C			-1.26		-8.83	2.49	
C[n+]1cc2c3c(ccc2c2ccc4cc5c(cc4c21)OCO5)OCO3	266						
CN=C(O)/C(=N/OC)c1ccccc1Oc1ccccc1	88		-6.87				
CCNC(=O)C(=O)NCC	175						
COc1ccc2[nH]cc(CCN)c2c1	122						
NCCCCCCCCCCC(=O)O	191						
CN(C)C1CSSC1	177						
CCCCCCC(=O)CCCCCC	33	261	-2.18				
C[C@]12C=CC(=O)C=C1[C@@H](F)C[C@@H]1[C@@H]2[C@@H](O)C[C@@]2(C)[C@H]1CC[C@]2(O)C(=O)CO	210						
O=[N+]([O-])OC(CO)CO	54	158					

SMILES	melting point [°C]	boiling point [°C]	log10 vapour pressure (mmHg)	ready biodegradability	log10 Henry constant (atm·m³/mol)	log10 Koc (L/kg)	log10 Koa
CCCCc1ccccc1O	-20	235	-1.99				
O=C(O)CCCCCCCCCF	49						
Nc1ccc(C2CCCCC2)cc1	54.5						
COc1cc(Cl)c(Cl)c(Cl)c1O			-2.73			2.8	
CCn1cccc1		130					
O=C1OCCC1N(C(=O)C1CC1)c1cccc(Cl)c1 (stereo not drawn)	95						
Cc1cc(C)cc(N)c1	9.8	220		not readily biodegradable			
CC1=CC(=O)OC1=O	7.5	214					
Oc1ccc(Cl)cc1Cc1cc(Cl)ccc1O	178		-10	not readily biodegradable			
CN(C)C(=O)Nc1ccc(SC(F)(F)Cl)c(Cl)c1	114						
O=C(O)c1cc(-c2ccc(F)cc2F)ccc1O	216						
COc1ccccc1C(=O)O	101		-4.8	readily biodegradable			
Cc1occc1C(=O)Nc1ccccc1	110		-6.82			2.48	
c1ccc(COc2ccc3[nH]ccc3c2)cc1	102						
Cc1c(Cl)cccc1Nc1ccccc1C(=O)O	207			not readily biodegradable			
O=C(N[C@H](CO)[C@H](O)c1ccc([N+](=O)[O-])cc1)C(Cl)Cl	150						
CNc1ccccc1C(=O)O	180			readily biodegradable			
O=C(O)CP(=O)(O)O	144						
S=C=Nc1cccc2ccccc12	58						
Cc1ccc(O)c(O)c1	65	251		not readily biodegradable			
BrCC(Br)(Br)Br	0						
COc1ccccc1Oc1ccccc1	79	288					
Cc1ccc([N+](=O)[O-])cc1Cl	66.5	260		not readily biodegradable			
CCC(=O)c1ccc2ccccc2c1	60	313					

SMILES	melting point [°C]	boiling point [°C]	log10 vapour pressure (mmHg)	ready biodegradability	log10 Henry constant (atm·m³/mol)	log10 Koc (L/kg)	log10 Koa
CC	-183	-88.6	4.5				0.42
Cc1cc(N)ccc1Br	81	240				2.26	
CCC=CCC	-114	66.8	2.22				
CCS(=O)(=O)c1nnc(N(C)C(=O)NC)s1	156						
CCCCCC[Si](Cl)(CCCCCC)CCCCCC				not readily biodegradable			
CCCOC(=O)N1CCNCC1				readily biodegradable			
CCc1cccc([N+](=O)[O-])c1	-37.9	242					
CO[Si](C)(OC)OC		102					
COc1cc(C=C2CCCC(=Cc3ccc(O)c(OC)c3)C2=O)ccc1O	178						
O=C(O)[C@H](O)[C@@H](O)[C@H](O)[C@H](O)CO	131						
c1ccc(CN2CCCCC2)cc1		245					
C=CC(=O)NC(C)C	64						
CC(C)(I)I		173					
c1ccc2oc(-c3ccc(-c4nc5ccccc5o4)s3)nc2c1	219						
CCCCCC(=O)O[C@]1(C(C)=O)CC[C@H]2[C@@H]3CCC4=CC(=O)CC[C@@H]4[C@H]3CC[C@@]21C	124						
C[Si](C)(CCl)c1ccccc1		225					
COc1cc(C(=O)NCc2ccc(OCCN(C)C)cc2)cc(OC)c1OC	189						
O=C(O)c1cccc(S(=O)(=O)O)c1				not readily biodegradable			
COc1cc(C(=O)NCCCCCC(=O)O)cc(OC)c1OC	122						
Cc1cccc(O)c1[N+](=O)[O-]	37		-1.43		-5.51		
NCCCNCCCN	-14						
CC=C1CCCC1	-130	115					
O=C(c1ccccc1)c1ccc(O)cc1O	144			not readily biodegradable			
Nc1ccc(F)cc1F	-7.5	170					

Same assay, conditions: fish

SMILES	log10 biotransformation half-life (days)	log10 BCF
Clc1ccc(-c2cccc(Cl)c2Cl)c(Cl)c1	2.62	
Nc1c(Oc2ccc(Br)cc2)cc(O)c2c1C(=O)c1ccccc1C2=O		2.05
Clc1cccc(-c2c(Cl)cccc2Cl)c1Cl	2.18	
CN(C)C1CSSC1		1.72
COc1cc(Cl)c(Cl)c(Cl)c1O		1.97
Oc1ccc(Cl)cc1Cc1cc(Cl)ccc1O	-0.51	2.28
